For data set [1], the system named is nerve cells (septal area of the brain of a fetal rat). Nature of the data set: Protection of cultured nerve cells (septal area) against L-glutamic acid. It is filed as cell-based. The conditions noted are these: L-glutamic acid 100 μM. Here is the method:
Protection of cultured nerve cells
(§1) The septal area was taken out from the brain of a fetal rat. The cells were dispersed using trypsin and deoxyribonuclease and were cultured for one day on a Pit medium (Dulbecco modified Eagle medium or Ham F12 medium, commercial products of Nissui Seiyaku K. K., Japan) containing 5% horse serum and 5% fetal calf serum. After adding cytosine arabinoide (10μM) to the medium, the culturing was continued for 10 days.
(§2) L-glutamic acid (100 μM) and ES-242-1 were added to the cultured broth to measure the survival ratio of the nerve cells. For control purposes, a similar procedure was carried out with the exception that glutamic acid (100μM) and/or ES-242-1 were replaced by dimethylsulfoxide (DMSO) (0.5%). The cells which survived were counted by the fluorescence-dying method with reference to the Costa et al. method [Proc. Natl. Acad. Sci., U.S.A., 85, 7351-7355 (1988)].
(§3) The results shown in the following Table 3 were obtained in a manner similar to that described above except the cerebellum was used instead of the septal area. In the following tables, the term "GA" denotes L-glutamic acid (unit 100μM) and the term "SR" denote the survival ratio of the cells (%).

For data set [2], the system named is nerve cells (cerebellum of a rat). Nature of the data set: Protection of cultured nerve cells (cerebellum) against L-glutamic acid. It is filed as cell-based. Particulars: L-glutamic acid 100 μM; for viability at 5 µg/mL / viability at 1 µg/mL / viability at 10 µg/mL: Rattus norvegicus, cerebellum, read-out: survival ratio of the cells (SR); for viability at 5 µg/mL: test compound 5 μg/ml; for inhibition of the death of nerve cells induced by L-glutamic acid: cerebellum (Tables 4 and 5); for viability at 1 µg/mL: test compound 1 μg/ml; for viability at 10 µg/mL: test compound 10 μg/ml. Here is the method: as §1, §2, §3
The results shown in the following Tables 4 and 5 were obtained by a procedure similar to that described in Experiment 1 above with the exception that the cerebellum of a rat and ES-242-2 or ES-242-5 were respectively used instead of the septal area and ES-242-1.

In data set [3] the test system is CAI area neurons of the hippocampus. The data set is described as follows: Protection of nerve cells from ischaemic injury. It is filed as in vivo, Mongolian gerbils. The text has this:
Ischaemic injury of the nervous system was induced in the CAI area of the hippocampus of Mongolian gerbils by closing and reperfusing two cartoid arteries with reference to the Kirino et al method [Cerebral Nerve, Vol. 38, No. 12, 1157-1163 (1986)] as follows.
On each occasion, the test compound was suspended in a physiological solution of sodium chloride. The animal (body weight 60-70 g) was anesthetized with ether. The left and right common cartoid arteries were exposed through midcervical vertical skin incision and the anesthetic was discontinued. The cartoid arteries on both sides were occluded for 5 minutes using aneurism clips. Immediately after this, a given amount (100 mg/kg) of Compound ES-242-1 was given orally to the animal. One week after this, the animal was fixed by transcardic perfusion. Immediately after this, the brain was removed from the animal to prepare a sample of the histologic section containing the CIA area of the hippocampus. The number of normal cells of the CAI area neurons per 1 mm linear length was counted.
The above-mentioned treatment is hereinafter referred to as the ischaemic treatment.
For control purposes, a group of the animals were given a physiological solution of sodium chloride only, without ischaemic treatment. […]

The target in data set [4] is N-methyl-D-aspartic acid receptor. The data set is described as follows: Binding activity to N-methyl-D-aspartic acid receptor ([3H]TCP binding in rat brain membranes). The conditions noted are these: rat brain membranes (crushed cerebrum). Here is the method:
The binding activity of Compounds ES-242 to N-methyl-D-aspartic acid receptor was measured as follows.
With reference to the modified method of Vignon et al [Brain Research, 280, 194-197 (1983)], the binding activity of ES-242 to N-[1-(2-thienyl) cyclohexyl]-3,4-[^3 H]piperidine ([^3 H]TCP) in rat brain membranes was measured by the use of a crushed cerebrum of a rat and expressed by IC50 viz. a concentration required for 50% inhibition of the binding ability to the sample.

The nature of the next data set: Solubility. It is filed as physicochemical.
The test system of the next data set is nervous system. Particulars: literature report; cited from earlier work.
The subject of data set [5] is N-methyl-D-aspartic acid receptors. Particulars: literature report; cited from earlier work.
The conditions of data set [6]: literature report; cited from earlier work.
The conditions of data set [7]: literature report; cited from earlier work. The source holds these as a separate data set.
Setting [8] is: Table 4, control 95, GA alone 56.
The mark [9] stands for this setting: Table 5, control 88, GA alone 40.

Like-named read-outs stand apart in the source and are kept apart here.

For the compound `COc1cc(OC)c2c(O)c3c(c(-c4c5c(c(O)c6c(OC)cc(OC)cc46)COC(C)C5OC(C)=O)c2c1)CC(C)OC3` (centres unmarked) [ES-242-1], in [1] (septal area and cerebellum (Tables 2 and 3)), the “inhibition of the death of nerve cells induced by L-glutamic acid” value (“inhibition of the death … by L-glutamic acid” below) was “inhibited the death of the nerve cells”. Also, the viability at 0.1 µg/mL in data set [1] (Rattus norvegicus, septal area, test compound 0.1 μg/ml, control 87, GA alone 5, read-out: survival ratio of the cells (SR)) was determined as 23%. The viability at 0.5 µg/mL in data set [1] (Rattus norvegicus, septal area, test compound 0.5 μg/ml, control 87, GA alone 5, read-out: survival ratio of the cells (SR)) is 73%. Further, the viability at 5 µg/mL in data set [2] (Table 3, control 90, GA alone 44) is 75%. In addition, the “number of normal cells in average ± standard deviation (N)” value in data set [3] (100 mg/kg oral immediately after 5 min occlusion, one week, n=5, normal control 100 ± 4.7, ischaemic control 0 ± 0) is on record as 24.4 ± 20.6 cells/mm. The “protecting activity to ischaemic injury of the nervous system” value in data set [3] (100 mg/kg oral, gerbils) was “exhibited a significant protecting activity”. Also, the “IC50 (50% inhibition of [3H]TCP binding)” value in data set [4] was 0.1 µg/mL. In addition, the Solubility result in “Solubility” (methanol, acetone, ethyl acetate and chloroform) was “Readily soluble”; in the data set “Solubility” (water and n-hexane), “Insoluble”.

As for `COc1cc(OC)c2c(O)c3c(c(-c4c5c(c(O)c6c(OC)cc(OC)cc46)COC(C)C5OC(C)=O)c2c1)C(OC(C)=O)C(C)OC3` (centres unmarked) [ES-242-2], the viability at 5 µg/mL in [1] (Rattus norvegicus, septal area, test compound 5 μg/ml, control 87, GA alone 5, read-out: survival ratio of the cells (SR)) is 74%. Besides, the viability at 50 µg/mL in [1] (Rattus norvegicus, septal area, test compound 50 μg/ml, control 87, GA alone 5, read-out: survival ratio of the cells (SR)) amounted to 74%. Also, the “inhibition of the death … by L-glutamic acid” value in data set [2] was “inhibit the death of the nerve cells”. In data set [2] (setting [8]), the viability at 1 µg/mL is 44% and the viability at 10 µg/mL is 88%. Further, the “IC50 (50% inhibition of [3H]TCP binding)” value in data set [4] worked out at 1.9 µg/mL.

With `COc1cc(OC)c2c(O)c3c(c(-c4c5c(c(O)c6c(OC)cc(OC)cc46)COC(C)C5OC(C)=O)c2c1)C(O)C(C)OC3` (centres unmarked) [ES-242-3], the “IC50 (50% inhibition of [3H]TCP binding)” value in [4] stood at 1.8 µg/mL.

Take `COc1cc(OC)c2c(O)c3c(c(-c4c5c(c(O)c6c(OC)cc(OC)cc46)COC(C)C5O)c2c1)C(O)C(C)OC3` (centres unmarked) [ES-242-4]: the “IC50 (50% inhibition of [3H]TCP binding)” value in data set [4] turned out to be 14.6 µg/mL.

As for `COc1cc(OC)c2c(O)c3c(c(-c4c5c(c(O)c6c(OC)cc(OC)cc46)COC(C)C5O)c2c1)CC(C)OC3` (centres unmarked) [ES-242-5], in data set [2], the “inhibition of the death … by L-glutamic acid” value was “inhibit the death of the nerve cells”. Besides, in [2] (setting [9]), the viability at 1 µg/mL is 68%, the viability at 5 µg/mL was 73% and the viability at 10 µg/mL came to 79%. Moreover, the “IC50 (50% inhibition of [3H]TCP binding)” value in data set [4] turned out to be 0.6 µg/mL.

Turning to `COc1cc2c(-c3c(OC)c(C)c(O)c4c(O)c5c(cc34)C[C@](C)(O)CC5=O)c3c(c(O)c2c(O)c1C)C(=O)C[C@@](C)(O)C3` [Singueanol II], the “capability of protecting the nervous system” value in the data set with nervous system is “neither capable of protecting the nervous system”. Further, the “antagonism against N-methyl-D-aspartic acid receptors” value in data set [5] is reported as “nor antagnostic against N-methyl-D-aspartic acid receptors”. For the same compound, the anti-bacterial activity result in [6] is “exhibit anti-aspartic and anti-bacterial activity”. In addition, the anti-aspartic activity result in data set [7] is “exhibit anti-aspartic”.

The values are drawn from patent US5081264A, “Bioxanthracene derivatives” (Kyowa Hakko Kabushiki Kaisha, priority 1989, dated 1992).
